Measured values reported in patent US20250073238A1, “METHODS OF TREATING SYSTEMIC LUPUS ERYTHEMATOSUS USING BTK INHIBITORS” (BeiGene Switzerland GmbH, priority 2020, published 2025).

How the values were obtained:
[1] = tested on: NZBWF1/J lupus mouse model; assay: Efficacy in NZBWF1/J lupus model; assay type: in vivo; settings: for Blood urea nitrogen (BUN) level: day 96, serum
Method: […] NZBWF1 female mice at 26 weeks of age were randomized into 7 groups with 10 mice per group, based on proteinuria level, anti-dsDNA IgG level and body weight. […] Treatments were administered by oral gavage (p.o.) in a volume of 10 ml/kg body weight.
Mice were also being monitored daily for clinical signs of toxicity for the duration of the study. Body weight for each animal was recorded twice per week and proteinuria was measured weekly. Proteinuria was assessed using URIT 1 vp strips, and was scored on a 0-4 scale with scored as follows: 0=trace, 1≥30 mg/dL, 2≥100 mg/dL, 3≥300 mg/dL, and 4≥500 mg/dL.
On the day 96th of treatment, blood was collected quickly by the heart punctures under carbon dioxide euthanasia. The 300-500 μL blood was transferred to the coagulation tube, and the upper serum samples were separated by centrifuge at 2,000 g for 10 minutes, and then stored in the refrigerator at −80° C. for later use. 110 μL serum was used for the detection of blood urea nitrogen level, and 25 μL serum was used for measurement of TNFα and IL-10 levels by Luminex.
The kidney was removed and fixed with 10% neutral buffer formalin solution. The tissue was taken from the modified block, dehydrated with alcohol step by step, embedded in paraffin, sectioned by slide slicer (about 3 μm thick), stained with hematoxylin-cosin (HE), and examined by light microscopy for pathological changes of the kidney tissue. Sections were blindly scored as the sum of three systems, including inflammation (0-4), glomerular damage (0-4), and sclerosis (0-4).

[2] = tested on: SLE-cGVHD mouse model; assay: Efficacy in systemic lupus erythematosus like chronic graft-versus-host-disease (SLE-cGVHD) model; assay type: in vivo
Method: Splenocytes from DBA/2 mice were transplanted into 54 B6D2F1 mice intravenously at day −7 and day 0. 48 animals were randomly divided into 4 groups of 12 animals each group according to the inoculation order. Treatment was initiated the next day after randomization until the end of the 26th day. […] Treatments were administered by oral gavage (p.o.) in a volume of 10 ml/kg body weight.
Mice were monitored daily for clinical signs of toxicity for the duration of the study. Body weight for each animal was recorded twice per week. On day 15th of treatment, blood was collected from the orbital venous sinus under isoflurane/oxygen anesthesia and the serum samples were prepared. An anti-ds DNA IgG ELISA kit (Chondrex, Inc., Cat. 3031) was used to quantitate anti-ds DNA IgG levels in sera from individual mice.
On day 8th, b 15th and 22th of treatment, proteinuria was assessed by determination of urine albumin using URIT 1 vp strips (URIT, China), and was scored on a 0-4 scale with scored as follows: 0=trace, 1≥30 mg/dL, 2≥100 mg/dL, 3≥300 mg/dL, and 4≥500 mg/dL.
The difference between the mean values of proteinuria level, spleen-index and anti-ds DNA IgG level in treatment and vehicle group was analyzed for significance using One-way ANOVA (followed by Dunnett's test). P<0.05 was considered statistically significant.

[3] = Plasma drug exposure at steady state in SLE-cGVHD mice; assay type: in vivo, mouse; settings: day 26, 10 and 20 mg/kg BID oral
Method: Plasma was collected by centrifugation at 5, 600 rpm for 7 minutes. Bioanalysis was conducted at 3D BioOptima Co., Ltd. (Suzhou, China).

[4] = tested on: MRL/MpJ-Fas^lpr/J (MRL/lpr) mouse model; assay: Efficacy in MRL/MpJ-Fas^lpr/J (MRL/lpr) lupus model; assay type: in vivo
Method: MRL/MpJ-Fas^lpr/J (MRL/lpr) mice purchased from Jackson laboratories were randomized into 6 groups with 11 mice per group, based on proteinuria level, anti-dsDNA IgG and body weight. […] Treatments were administered by oral gavage (p.o.) in a volume of 10 ml/kg body weight.
During the experimental period, the condition and mortality of the mice were recorded every day. Body weight for each animal was recorded twice per week.
Proteinuria was measured by determination of urine albumin weekly using URIT 1 vp strips (URIT, China), and was scored on a 0-4 scale with scored as follows: 0=trace, 1≥30 mg/dLl, 2≥100 mg/dL, 3≥300 mg/dLl, and 4≥500 mg/dL.
At the end of the study, blood was collected from the orbital venous sinus under isoflurane/oxygen anesthesia. The serum samples were prepared and analyzed for BUN level in serum. An anti-dsDNA IgG ELISA kit (Chondrex, Inc., Cat. 3031) was used to quantitate IgG level to anti-dsDNA IgG in sera from individual mice.
Mice were euthanized using carbon dioxide, spleen and body weight were measured at the end of the study. Spleen index (ratio of spleen weight to body weight) was calculated.
The kidneys were collected and preserved in 10% NBF, the tissues were trimmed, dehydrated, embedded in paraffin, sectioned (˜3 μm) and stained with HE. The histopathology exam was performed.
The difference between the mean values of proteinuria level, spleen-index, BUN level, kidney histopathology score and anti-dsDNA IgG level in treatment and vehicle group was analyzed for significance using One-way ANOVA (followed by Dunnett's test). P<0.05 was considered statistically significant.

[5] = Plasma drug exposure at steady state in MRL/lpr mice; assay type: in vivo, mouse; settings: 1.5-50 mg/kg BID oral
Method: Plasma was collected by centrifugation at 5, 600 rpm for 7 minutes and was kept frozen at −80° C. until analysis. Bioanalysis was conducted at 3D BioOptima Co., Ltd. (Suzhou, China).

[6] = Compound 1 10 mg/kg BID p.o., day 96
[7] = Compound 1 3 and 10 mg/kg BID p.o.
[8] = 1.5, 5, 15 and 50 mg/kg BID oral, end of study
[9] = MMF 100 mg/kg QD p.o., compared with the control group

## C=CC(=O)N1CCC([C@@H]2CCNc3c(C(N)=O)c(-c4ccc(Oc5ccccc5)cc4)nn32)CC1 [Compound 1, (S)-7-(1-acryloylpiperidin-4-yl)-2-(4-phenoxyphenyl)-4,5,6,7-tetra-hydropyrazolo[1,5-a]pyrimidine-3-carboxamide]
[1]; [6]
  Secretion of IL-10 (serum level): dramatically inhibited
  Secretion of TNFα (serum level): dramatically inhibited
[1]; Compound 1 0.1-10 mg/kg BID p.o.
  Renal histopathology score: inhibited renal histopathology score in a dose-dependent manner
[1]; Compound 1 0.1-10 mg/kg BID p.o., vs. vehicle
  Proteinuria: dose-dependently suppressed
[1]; Compound 1 0.1 and 0.3 mg/kg BID p.o., compared with MMF 100 mg/kg QD
  Proteinuria: less effective than MMF
[1]; Compound 1 1, 3 and 10 mg/kg BID p.o., compared with MMF 100 mg/kg QD
  Proteinuria: no significant difference when compared with MMF
[1]; [7]
  Spleen weight: dramatically inhibited
  Blood urea nitrogen (BUN) level: remarkably inhibited
[1]; Compound 1 orally 3 and 10 mg/kg BID
  Anti-lupus effect compared with MMF: stronger anti-lupus effect
[1]; NZBWF1/J lupus mouse model, all results
  Anti-lupus effect (overall): strong anti-lupus effect
[2]; 10 and 20 mg/kg BID oral, day 15 of treatment, ELISA
  Level of anti-dsDNA IgG in serum: inhibited
[2]; 10 and 20 mg/kg BID oral, day 22 of treatment
  Proteinuria level: significantly reduced
[2]; SLE-cGvHD mouse model, all results
  Disease (overall): ameliorated disease
[3]
  Drug exposure AUC0-8h: increased dose dependently
  Drug exposure Cmax: increased dose dependently
[4]; 1.5 mg/kg to 50 mg/kg twice a day
  Efficacy (dose dependence): dose-dependent efficacy
[4]; 1.5, 5, 15 and 50 mg/kg BID oral, 17 weeks
  Protection from lupus nephritis: significantly protected
[4]; 1.5, 5, 15 and 50 mg/kg BID oral, day 118
  Proteinuria: significantly decreased
[4]; [8]
  Kidney histopathological score: reduced
  Serum blood urea nitrogen (BUN) level: significantly decreased
[4]; 1.5, 5, 15 and 50 mg/kg BID oral, end of study, compared with vehicle
  Anti-dsDNA IgG level in serum: inhibited
[4]; MRL/lpr mouse model, all results
  Anti-lupus effect (overall): strong anti-lupus effect
[5]
  Drug exposure AUC0-8h: increased dose independently
  Drug exposure Cmax: increased dose independently

## COc1c(C)c2c(c(O)c1C/C=C(\C)CCC(=O)OCCN1CCOCC1)C(=O)OC2 [MMF, mycophenolate mofetil, reference compound]
[1]; MMF 100 mg/kg QD p.o.
  Renal histopathology score: not able to significantly inhibit
  Spleen mass: not able to significantly inhibit
  Blood urea nitrogen (BUN) level: remarkably inhibited
[1]; [9]
  IL-10 level in serum: lower level of TNFα and IL-10 with no statistical significance
  TNFα level in serum: lower level of TNFα and IL-10 with no statistical significance
